{
  "source": "patent US10780061B2",
  "about": "“Composition comprising farnesol and use thereof” (Daegu Gyongbuk Institute of Science and Technology, priority 2014, dated 2020)",
  "key": {"[1]": {"assay": "Fat mass ratio by dual-energy X-ray absorptiometry", "format": "in vivo", "details": "old mouse, farnesol diet 4 months", "protocol": "(§1) 22-month-old female mice (weighing 30 g) are fed with a control diet and a farnesol diet for 4 months. That is, 22-month-old mice are fed for 4 months, and then 26-month-old mice are analyzed. […] The same mouse is used as a control group, except that it is fed with a diet containing no farnesol. Muscle strength, energy expenditure, glucose tolerance, and fat accumulation of each mouse are evaluated.\nThe fat mass ratio is determined by dual-energy X-ray absorptiometry (LUNA PIXIMUS, GE Healthcare/LUNA), and measured on combined images after radiation at 40 kV X-ray and 80 kV X-ray four times, respectively."}, "[2]": {"test_system": "fibrosis-related genes TGF-β, Col A1, collagen A3, Timp2", "assay": "qRT-PCR of fibrosis-related genes in injured tibialis anterior muscle", "format": "in vivo", "details": "old mouse, CTX injury", "protocol": "25-month-old mice are fed with a control diet or a farnesol-containing diet for 2 weeks, and then 2 ul of 10 uM cardiotoxin (CTX) per body weight (g) is directly injected into the muscle to induce muscle injury. After 4 days, muscles are frozen and sectioned, followed by histological staining.\nIn addition, expressions of fibrosis-related genes, TGF-β, Col A1, collagen A3, and Timp2 in tibialis anterior muscle are analyzed by qRT-PCR as described above."}, "[3]": {"test_system": "PARIS-overexpressing C2C12 cells", "assay": "Differentiation of PARIS-overexpressing myoblasts (Myh immunostaining)", "format": "cell-based", "protocol": "In C2C12 myoblasts, a PARIS gene expression vector (pCMV-Tag2A, Stratagene) is transiently expressed, followed by immunoblotting and immunostaining analysis. PARIS gene is a full length cDNA of human PARIS gene having a nucleotide sequence of SEQ ID NO: 9. […] After induction of differentiation of PARIS-overexpressing C2C12 cells for 3 days, immunostaining for Myh expression is performed. To induce the differentiation, cells are cultured in DMEM containing 2% horse serum and 0.1 μM farnesol dissolved in DMSO for 48 hours. A control group is cultured in the same manner as above, except that only DMSO is added. Other culture conditions are the same as those described in Section 1 of Example 2. As shown in panel (A) of FIG. 4F, PARIS overexpression decreases Myh-positive myotube formation, and reduced myotube formation is recovered by farnesol treatment. In (A) of FIG. 4F, Control represents myoblasts introduced with no PARIS gene expression vector, and ‘PARIS’ represents myoblasts introduced with a PARIS gene expression vector. In these experiments, blue color staining indicates nuclei, and red color staining indicates stained myh and also myotubes. The colors are not shown in panel (A) of FIG. 4F, but the difference in the relative amount of red color stained area is quantified in panel (B) of FIG. 4F, wherein pCMV represents the control myoblasts without a PARIS gene expression vector. […]"}, "[4]": {"test_system": "succinic dehydrogenase (SDH)", "assay": "SDH staining (mitochondrial enzyme activity) of extensor digitorum longus muscle", "format": "in vivo, mouse", "protocol": "Staining of succinic dehydrogenase (SDH) in the extensor digitorum longus muscle of a mouse administered with farnesol for 5 weeks is performed. This staining method is a method of analyzing mitochondrial activity by measuring activity of SDH which is an enzyme involved in the electron transport chain of mitochondria. Staining degree represents a content of oxidative muscle fiber. Frozen tissue sections are reacted in 0.2 M phosphate buffer (pH 7.4) containing […] sodium succinate and nitro blue tetrazolium (NBT) at 37° C. for 60 minutes, washed with distilled water, and then sealed, followed by observation. Further, farnesol is administered to mice in the same manner as in Section 4 of Example 2, except that 22-month-old mice are used instead of 5-month-old mice and administration is performed for 4 months instead of 5 weeks, and activity of a mitochondrial enzyme according to farnesol administration is analyzed in the extensor digitorum longus muscles of old mice."}, "[5]": {"test_system": "fibrosis-related genes Col1 A1, Col A3, TGF-β, Timp2", "assay": "qRT-PCR of fibrosis-related genes in extensor digitorum longus muscles", "format": "in vivo, mouse", "details": "22-month-old mice, farnesol diet 4 months", "protocol": "In muscle aging, fibrosis is closely related to a reduction in regenerative capacity and a reduction in quality of muscle. 22-month-old female mice (weighing 30 g) are fed with a control diet or a farnesol-containing diet for 4 months. Other feeding conditions are the same as described in Section 2 of Example 1. Thereafter, expressions of fibrosis-related genes, collagen 1 A1 (Col1 A1), collagen A3(Col A3), TGF-β, and Timp2 in extensor digitorum longus muscles are analyzed by qRT-PCR (quantitative Real Time-polymerase chain reaction) (primer sets of SEQ ID NOS: 1 and 2, 3 and 4, 5 and 6, 7 and 8 are used)."}, "C2C12 myoblasts": {"test_system": "C2C12 myoblasts", "assay": "Immunoblot of PGC-1α and differentiation markers in farnesol-treated myoblasts", "format": "cell-based", "protocol": "DMEM (Dulbecco's Modified Eagle Medium) supplemented with 10% fetal bovine serum is used as a growth medium for culture of C2C12 myoblasts, and DMEM supplemented with 2% horse serum is used as a differentiation medium for differentiation of muscle cells. To induce differentiation of C2C12 myoblasts into muscle cells, 0.1 μM farnesol dissolved in DMSO or various concentrations of farnesol (0.1, 1, 10, 100 uM) are added, and DMSO is only added to a control group. The cells are cultured for 48 hours to induce differentiation, and then a lysis buffer (20 mM Tris-HCl, pH 8, 150 mM NaCl, 1% Triton X, Proteinase Inhibitor) is added to the harvested cells to allow lysis for 30 minutes, followed by centrifugation at 13,000 rpm for 30 minutes. The amount of protein in the cell lysis sample is quantified and an equal amount of protein is subjected to 8% SDS-PAGE. The protein is transferred onto a PVDF membrane, and then incubated in a blocking buffer containing 5% skim milk for 1 hour. HRP (horseradish peroxidase)-conjugated rabbit antibodies specific to individual proteins, diluted in 5% BSA, are reacted with the membrane at 4° C. for 12 hours, and then the membrane is washed with a wash buffer for 5 minutes three times. Thereafter, the membrane is exposed to X-ray film using an ECL reagent (Roche) to confirm protein expression levels."}, "[6]": {"assay": "Glucose tolerance test of old mice", "format": "in vivo", "details": "old mouse, 1 g/kg glucose i.p. after overnight fast", "protocol": "as §1"}, "[7]": {"details": "0.1-100 uM tested, from 0.1 to 10 uM, FIG. 1B"}, "[8]": {"details": "farnesol-treated myoblasts, FIG. 1A"}},
  "data": [
    {"smiles": "CC(C)=CCC/C(C)=C/CC/C(C)=C/CO", "note": "[farnesol, (2E,6E)-3,7,11-trimethyldodeca-2,6,10-trien-1-ol]", "values": [
      {"measurement": "fat mass ratio", "setting": "[1]", "value": "significantly decreased"},
      {"measurement": "expressions of fibrosis-related genes in injured tibialis anterior muscle", "setting": "[2]", "value": "significantly reduced"},
      {"measurement": "red color (Myh) stained area, control cells without PARIS vector", "setting": "[3]; CONTROL (pCMV) C2C12, 0.1 μM farnesol vs DMSO", "value": "‘CONTROL’ cell treated with DMSO is smaller than that of ‘CONTROL’ cell treated with Farnesol"},
      {"measurement": "Myh-positive myotube formation reduced by PARIS overexpression", "setting": "[3]; PARIS-overexpressing C2C12, 0.1 μM farnesol", "value": "recovered"},
      {"measurement": "percentage of the area stained dark (SDH activity) in EDL", "setting": "[4]; 5-month-old mice, farnesol 5 weeks", "value": "remarkably increased"},
      {"measurement": "percentage of the area stained dark (SDH activity) in EDL", "setting": "[4]; 22-month-old mice, farnesol 4 months", "value": "remarkably increased"},
      {"measurement": "expressions of fibrosis-related genes in EDL", "setting": "[5]", "value": "remarkably reduced"},
      {"measurement": "expression of MHC according to farnesol concentration", "setting": "C2C12 myoblasts; [7]", "value": "increased in myoblasts in a farnesol concentration-dependent manner"},
      {"measurement": "expression of PGC-1α according to farnesol concentration", "setting": "C2C12 myoblasts; [7]", "value": "increased in myoblasts in a farnesol concentration-dependent manner"},
      {"measurement": "expression of myogenin according to farnesol concentration", "setting": "C2C12 myoblasts; [7]", "value": "increased in myoblasts in a farnesol concentration-dependent manner"},
      {"measurement": "increase in PGC-1α gene expression compared to control group", "setting": "C2C12 myoblasts; farnesol-treated myoblasts, 48 hours, FIG. 1A", "value": "about 2.8 times"},
      {"measurement": "expression of myoblast determination protein (MyoD)", "setting": "C2C12 myoblasts; [8]", "value": "increased"},
      {"measurement": "expression of myosin heavy chain (MHC)", "setting": "C2C12 myoblasts; [8]", "value": "increased"},
      {"measurement": "expression of troponin T gene", "setting": "C2C12 myoblasts; [8]", "value": "increased"},
      {"measurement": "blood glucose level in glucose tolerance test", "setting": "[6]", "value": "remarkably low"}
    ]}
  ]
}
